Source: patent US9873709B2 (priority 2013, dated 2018)

Tested on: JAK1-dependent STAT6 phosphorylation downstream of IL-13 stimulation in TF-1 human erythroleukemia cells
Assay: cells
Conditions: TF-1, read-out: IL-13-pSTAT6 IC50

Compound | IC50 [nM]
CCOC(=O)N1CC=C(c2cccn3nc(Nc4ccc(C(=O)N5CCC(CN)C5)cc4)nc23)CC1 (stereo not drawn) [Example 2-130, ethyl 4-[2-[4-[3-(aminomethyl)pyrrolidine-1-carbonyl]anilino]-[1,2,4]triazolo[1,5-a]pyridin-8-yl]-3,6-dihydro-2H-pyridine-1-carboxylate] | 226
Cc1cccc(CCNC(=O)c2ccc(Nc3nc4c(C5=CCN(C(=O)CCC(F)(F)F)CC5)cccn4n3)cc2)n1 [Example 2-216, N-[2-(6-methyl-2-pyridyl)ethyl]-4-[[8-[1-(4,4,4-trifluorobutanoyl)-3,6-dihydro-2H-pyridin-4-yl]-[1,2,4]triazolo[1,5-a]pyridin-2-yl]amino]benzamide] | 7.4
CN1CCC(NC(=O)c2ccc(Nc3nc4c(N5CCC(O)(c6ccc(Cl)cc6)CC5)cccn4n3)cc2)C1 (stereo not drawn) [Example 1-62, 4-[[8-[4-(4-chlorophenyl)-4-hydroxy-1-piperidyl]-[1,2,4]triazolo[1,5-a]pyridin-2-yl]amino]-N-(1-methylpyrrolidin-3-yl)benzamide] | 22.8
O=C(CCC(F)(F)F)N1CC=C(c2cccn3nc(Nc4ccc(C(=O)N5CCCC6(CCNCC6)C5)cc4)nc23)CC1 [Example 2-382, 1-[4-[2-[4-(2,9-diazaspiro[5.5]undecane-2-carbonyl)anilino]-[1,2,4]triazolo[1,5-a]pyridin-8-yl]-3,6-dihydro-2H-pyridin-1-yl]-4,4,4-trifluoro-butan-1-one] | 376
CN1CCCC1CCNC(=O)c1ccc(Nc2nc3c(C4=CCN(C(=O)CCC(F)(F)F)CC4)cccn3n2)cc1 (stereo not drawn) [Example 2-48, N-[2-(1-methylpyrrolidin-2-yl)ethyl]-4-[[8-[1-(4,4,4-trifluorobutanoyl)-3,6-dihydro-2H-pyridin-4-yl]-[1,2,4]triazolo[1,5-a]pyridin-2-yl]amino]benzamide] | 33.5
CN1CCC2(C1)CN(C(=O)c1ccc(Nc3nc4c(C5=CCN(C(=O)CCC(F)(F)F)CC5)cccn4n3)cc1)C2 [Example 2-328, 4,4,4-trifluoro-1-[4-[2-[4-(7-methyl-2,7-diazaspiro[3.4]octane-2-carbonyl)anilino]-[1,2,4]triazolo[1,5-a]pyridin-8-yl]-3,6-dihydro-2H-pyridin-1-yl]butan-1-one] | 12.3
CN1CCC(N(C)C(=O)c2ccc(Nc3nc4c(C5=CCN(c6ccccc6)CC5)cccn4n3)cc2)CC1 [Example 2-284, N-methyl-N-(1-methyl-4-piperidyl)-4-[[8-(1-phenyl-3,6-dihydro-2H-pyridin-4-yl)-[1,2,4]triazolo[1,5-a]pyridin-2-yl]amino]benzamide] | 163
O=C(NCCN1CCNCC1)c1ccc(Nc2nc3c(N4CCC(O)(c5ccc(Cl)cc5)CC4)cccn3n2)cc1 [Example 1-187] | 462
CN1CCC(N(C)C(=O)c2ccc(Nc3nc4c(C5=CCN(CC#N)CC5)cccn4n3)cc2)CC1 [Example 2-52, 4-[[8-[1-(cyanomethyl)-3,6-dihydro-2H-pyridin-4-yl]-[1,2,4]triazolo[1,5-a]pyridin-2-yl]amino]-N-methyl-N-(1-methyl-4-piperidyl)benzamide] | 60
O=C(CCC(F)(F)F)N1CC=C(c2cccn3nc(Nc4ccc(C(=O)N5CCCC(N6CCCCCC6)C5)cc4)nc23)CC1 (stereo not drawn) [Example 2-403, 1-[4-[2-[4-[3-(azepan-1-yl)piperidine-1-carbonyl]anilino]-[1,2,4]triazolo[1,5-a]pyridin-8-yl]-3,6-dihydro-2H-pyridin-1-yl]-4,4,4-trifluoro-butan-1-one] | 7.4
CN1CCN(CCCNC(=O)c2ccc(Nc3nc4c(C5=CCN(C(=O)CCC(F)(F)F)CC5)cccn4n3)cc2)CC1 [Example 2-99, N-[3-(4-methylpiperazin-1-yl)propyl]-4-[[8-[1-(4,4,4-trifluorobutanoyl)-3,6-dihydro-2H-pyridin-4-yl]-[1,2,4]triazolo[1,5-a]pyridin-2-yl]amino]benzamide] | 29.4
CN1CC2CN(C(=O)c3ccc(Nc4nc5c(C6=CCN(C(=O)CCC(F)(F)F)CC6)cccn5n4)cc3)CC(C1)O2 [Example 2-205, 4,4,4-trifluoro-1-[4-[2-[4-(7-methyl-9-oxa-3,7-diazabicyclo[3.3.1]nonane-3-carbonyl)anilino]-[1,2,4]triazolo[1,5-a]pyridin-8-yl]-3,6-dihydro-2H-pyridin-1-yl]butan-1-one] | 10
O=C(CCC(F)(F)F)N1CC=C(c2cccn3nc(Nc4ccc(C(=O)N5CCOC6(CCCNC6)C5)cc4)nc23)CC1 (stereo not drawn) [Example 2-82, 4,4,4-trifluoro-1-[4-[2-[4-(1-oxa-4,8-diazaspiro[5.5]undecane-4-carbonyl)anilino]-[1,2,4]triazolo[1,5-a]pyridin-8-yl]-3,6-dihydro-2H-pyridin-1-yl]butan-1-one] | 224
COCCC(=O)N1CC=C(c2cccn3nc(Nc4ccc(C(=O)N(C)C5CCN(C)CC5)cc4)nc23)CC1 [Example 2-411, 4-[[8-[1-(3-methoxypropanoyl)-3,6-dihydro-2H-pyridin-4-yl]-[1,2,4]triazolo[1,5-a]pyridin-2-yl]amino]-N-methyl-N-(1-methyl-4-piperidyl)benzamide] | 348
O=C(CCC(F)(F)F)N1CC=C(c2cccn3nc(Nc4ccc(C(=O)N5CC6(CCCNC6)C5)cc4)nc23)CC1 [Example 2-186, 1-[4-[2-[4-(2,8-diazaspiro[3.5]nonane-2-carbonyl)anilino]-[1,2,4]triazolo[1,5-a]pyridin-8-yl]-3,6-dihydro-2H-pyridin-1-yl]-4,4,4-trifluoro-butan-1-one] | 23.3
O=C(CCC(F)(F)F)N1CC=C(c2cccn3nc(Nc4ccc(C(=O)N5CCN(c6ccccn6)CC5)cc4)nc23)CC1 [Example 2-397, 4,4,4-trifluoro-1-[4-[2-[4-[4-(2-pyridyl)piperazine-1-carbonyl]anilino]-[1,2,4]triazolo[1,5-a]pyridin-8-yl]-3,6-dihydro-2H-pyridin-1-yl]butan-1-one] | 20.2
O=C(NCC1CC12CCNCC2)c1ccc(Nc2nc3c(C4=CCN(C(=O)CCC(F)(F)F)CC4)cccn3n2)cc1 (stereo not drawn) [Example 2-388, N-(6-azaspiro[2.5]octan-2-ylmethyl)-4-[[8-[1-(4,4,4-trifluorobutanoyl)-3,6-dihydro-2H-pyridin-4-yl]-[1,2,4]triazolo[1,5-a]pyridin-2-yl]amino]benzamide] | 141
O=C(CCC(F)(F)F)N1CC=C(c2cccn3nc(Nc4ccc(C(=O)N5CCC6(CCNCC6)C5)cc4)nc23)CC1 [Example 2-187, 1-[4-[2-[4-(2,8-diazaspiro[4.5]decane-2-carbonyl)anilino]-[1,2,4]triazolo[1,5-a]pyridin-8-yl]-3,6-dihydro-2H-pyridin-1-yl]-4,4,4-trifluoro-butan-1-one] | 652
CNC(=O)C1CN(C)CCN1C(=O)c1ccc(Nc2nc3c(C4=CCN(C(=O)CCC(F)(F)F)CC4)cccn3n2)cc1 (stereo not drawn) [Example 2-276, N,4-dimethyl-1-[4-[[8-[1-(4,4,4-trifluorobutanoyl)-3,6-dihydro-2H-pyridin-4-yl]-[1,2,4]triazolo[1,5-a]pyridin-2-yl]amino]benzoyl] piperazine-2-carboxamide] | 129
O=C(CCC(F)(F)F)N1CC=C(c2cccn3nc(Nc4ccc(C(=O)N5CCN6CCCCC6C5)cc4)nc23)CC1 (stereo not drawn) [Example 2-151, 1-[4-[2-[4-(1,3,4,6,7,8,9,9a-octahydropyrido[1,2-a]pyrazine-2-carbonyl)anilino]-[1,2,4]triazolo[1,5-a]pyridin-8-yl]-3,6-dihydro-2H-pyridin-1-yl]-4,4,4-trifluoro-butan-1-one] | 5.7
O=C(NCCC1CCCN1)c1ccc(Nc2nc3c(C4=CCN(C(=O)CCC(F)(F)F)CC4)cccn3n2)cc1 (stereo not drawn) [Example 2-316, N-(2-pyrrolidin-2-ylethyl)-4-[[8-[1-(4,4,4-trifluorobutanoyl)-3,6-dihydro-2H-pyridin-4-yl]-[1,2,4]triazolo[1,5-a]pyridin-2-yl]amino]benzamide] | 145
O=C(CCC(F)(F)F)N1CC=C(c2cccn3nc(Nc4ccc(C(=O)N5CCC6(CCCN6)C5)cc4)nc23)CC1 (stereo not drawn) [Example 2-377, 1-[4-[2-[4-(1,7-diazaspiro[4.4]nonane-7-carbonyl)anilino]-[1,2,4]triazolo[1,5-a]pyridin-8-yl]-3,6-dihydro-2H-pyridin-1-yl]-4,4,4-trifluoro-butan-1-one] | 55.5
CCOC(=O)N1CC=C(c2cccn3nc(Nc4ccc(C(=O)N5CCC(Cc6cccnc6)C5)cc4)nc23)CC1 (stereo not drawn) [Example 2-426, ethyl 4-[2-[4-[3-(3-pyridylmethyl)pyrrolidine-1-carbonyl]anilino]-[1,2,4]triazolo[1,5-a]pyridin-8-yl]-3,6-dihydro-2H-pyridine-1-carboxylate] | 51
CNC(=O)C1CN(C(=O)c2ccc(Nc3nc4c(C5=CCN(C(=O)CCC(F)(F)F)CC5)cccn4n3)cc2)CCN1CCc1ccccc1 (stereo not drawn) [Example 2-470, N-methyl-1-(2-phenylethyl)-4-[4-[[8-[1-(4,4,4-trifluorobutanoyl)-3,6-dihydro-2H-pyridin-4-yl]-[1,2,4]triazolo[1,5-a]pyridin-2-yl]amino]benzoyl] piperazine-2-carboxamide] | 13
CN(C)C(=O)C1(c2ccncc2)CCCN1C(=O)c1ccc(Nc2nc3c(C4=CCN(C(=O)CCC(F)(F)F)CC4)cccn3n2)cc1 (stereo not drawn) [Example 2-261, N,N-dimethyl-2-(4-pyridyl)-1-[4-[[8-[1-(4,4,4-trifluorobutanoyl)-3,6-dihydro-2H-pyridin-4-yl]-[1,2,4]triazolo[1,5-a]pyridin-2-yl]amino]benzoyl] pyrrolidine-2-carboxamide] | 46.5
O=C(NCC1CCC2(CCNCC2)CO1)c1ccc(Nc2nc3c(C4=CCN(C(=O)CCC(F)(F)F)CC4)cccn3n2)cc1 (stereo not drawn) [Example 2-189, N-(2-oxa-9-azaspiro[5.5]undecan-3-ylmethyl)-4-[[8-[1-(4,4,4-trifluorobutanoyl)-3,6-dihydro-2H-pyridin-4-yl]-[1,2,4]triazolo[1,5-a]pyridin-2-yl]amino]benzamide] | 110
CN1CCN(CCCNC(=O)c2ccc(Nc3nc4c(N5CCC(O)(c6ccc(Cl)cc6)CC5)cccn4n3)cc2)CC1 [Example 1-96, 4-[[8-[4-(4-chlorophenyl)-4-hydroxy-1-piperidyl]-[1,2,4]triazolo[1,5-a]pyridin-2-yl]amino]-N-[3-(4-methylpiperazin-1-yl)propyl]benzamide] | 64.6
